Results: patent publication US11332459B2 (TEIJIN PHARMA LIMITED, priority 2017, dated 2022)

Target: T1, human TRPC6 (Homo sapiens, UniProt Q9Y210)
T1 construct: expressed in transfected cells
T1 sequence (Q9Y210 1-931): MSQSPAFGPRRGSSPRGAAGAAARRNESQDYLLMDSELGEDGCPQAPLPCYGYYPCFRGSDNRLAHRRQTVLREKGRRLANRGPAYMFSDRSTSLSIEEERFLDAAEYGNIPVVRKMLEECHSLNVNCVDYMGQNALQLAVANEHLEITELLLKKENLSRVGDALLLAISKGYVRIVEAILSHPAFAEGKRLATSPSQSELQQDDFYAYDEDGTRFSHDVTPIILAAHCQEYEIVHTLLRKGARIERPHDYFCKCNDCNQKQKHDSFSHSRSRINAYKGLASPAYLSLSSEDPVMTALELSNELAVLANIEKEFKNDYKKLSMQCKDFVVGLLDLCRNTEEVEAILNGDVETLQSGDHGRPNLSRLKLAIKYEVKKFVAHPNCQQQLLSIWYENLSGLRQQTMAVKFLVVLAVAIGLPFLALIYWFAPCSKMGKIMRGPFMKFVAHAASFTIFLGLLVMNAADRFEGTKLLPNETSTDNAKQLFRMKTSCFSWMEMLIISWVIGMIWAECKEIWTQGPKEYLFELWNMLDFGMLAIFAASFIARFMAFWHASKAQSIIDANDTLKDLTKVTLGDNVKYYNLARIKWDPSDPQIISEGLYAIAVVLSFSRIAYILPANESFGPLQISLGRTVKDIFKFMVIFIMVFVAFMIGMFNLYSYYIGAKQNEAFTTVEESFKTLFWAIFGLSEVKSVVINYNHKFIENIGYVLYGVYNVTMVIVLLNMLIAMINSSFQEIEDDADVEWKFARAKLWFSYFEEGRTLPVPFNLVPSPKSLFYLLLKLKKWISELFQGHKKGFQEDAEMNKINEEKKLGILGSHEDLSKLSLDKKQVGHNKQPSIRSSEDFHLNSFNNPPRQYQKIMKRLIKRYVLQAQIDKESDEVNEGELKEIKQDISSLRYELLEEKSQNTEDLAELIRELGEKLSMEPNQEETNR
Assay: TRPC6 calcium flux assay (FLIPR, OAG-stimulated calcium influx)
Format: cell-based
Conditions: HEK293 cells stably transfected with human TRPC6, read-out: hTRPC6 Potency
Summary of the method: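 IC50 derived by plotting background-corrected peak fluorescence (180 s window, normalized to OAG-triggered signal vs buffer) against dose. Stable human TRPC6 HEK293 line was dye-loaded, exposed to compound 25 min, then challenged with 50 uM final OAG in 2 mM Ca2+ HEPES buffer pH 7.2, 0.5% DMSO.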

SMILES | IC50
N[C@@H]1CN(c2nc3cc(F)c(F)cc3n2Cc2cc(Cl)ccc2Cl)CC[C@H]1F [Example 343, (3R,4R)-1-(1-(2,5-dichlorobenzyl)-5,6-difluoro-1H-benzimidazol-2-yl)-4-fluoro-3-piperidinamine] | 804 nM
N#Cc1cnc(Cn2c(N3CC[C@@H](F)[C@H](N)C3)nc3cc(F)ccc32)nc1 [Example 443, 2-((2-((3R,4R)-3-amino-4-fluoropiperidin-1-yl)-5-fluoro-1H-benzo[d]imidazol-1-yl)methyl)pyrimidine-5-carbonitrile] | 0.471 nM
